# Laboratory results taken from US20230312601A1, “THIAZOLO[5,4-B]PYRIDINE MALT-1 INHIBITORS” (AbbVie Inc., priority 2022, published 2023).
# How the values were obtained:
# human MALT-1 protein = human MALT-1 protein (Homo sapiens (Human), UniProt Q9UDY8); experiment: MALT-1 Biochemical Assay (Quench-FRET enzyme assay); conditions: human MALT-1 6 nM, substrate 2 μM, 40 min preincubation
# Text: A Quenched Fluorescence Resonance Energy Transfer (Quench-FRET) enzyme assay was used to test the ability of exemplary MALT-1 inhibitors Example 1 to Example 39 to inhibit the cleavage of a MALT1 specific quenched fluorescent substrate of sequence [TAMRA-PEG2-Leu-Val-Ser-Arg-Gly-Ala-Ala-Ser-PEG2-K(QSY7) by human MALT-1 protein; where TAMRA is 6-carboxytetramethylrhodamine, PEG2 is 2-(2-(2-aminoethoxy)ethoxyamide linker, QSY7 is a non-fluorescent quenching dye (Thermo-Fisher catalog #Q10193). The assay was performed by pre-dispensing compounds into 384 well Proxiplates™ (PE 6008289). Human MALT-1 (6 nM) was prepared using the assay buffer (25 mM HEPES pH 7.5, 1 mM ethylenediaminetetraacetic acid, 0.8 M sodium citrate, 0.005% Bovine serum albumin (BSA), 2 mM dithiothreitol (DTT)) and added to the compound plates. The plates were incubated 40 minutes at room temperature. The reaction was carried out by adding the substrate (2 μM) to the plates and incubating for 60 minutes at room temperature. A fluorescence readout was then measured using a PE EnVision® reader (Ex.535/Em.590). […] EC50 is defined as the half maximal effective concentration of compound to inhibit MALT-1 protease activity.
# OCI-LY3 IL6 = experiment: MALT-1 Cell IL-6 AlphaLISA Assay; type: cell-based; conditions: Homo sapiens; OCI-LY3 cells, 48 hours incubation; read-out: OCI-LY3 IL6 48 hour Inhibition EC50
# Experimental: The following MALT-1 Cell Interleukin-6 (IL-6) AlphaLISA assay was conducted using a Perkin Elmer® IL-6 AlphaLISA® detection kit (PE AL223). The IL-6 detection assay is a homogeneous immunoassay that detects human IL-6 present in the cell culture medium in the MALT-1 dependent human ABC-DLBCL cell line, OCI-LY3. Compounds were pre-dispensed into Black 384w microtiter plates (Greiner, 781090) from 30 μM to 1.5 nM. Viable OCI-LY3 cells were then seeded on top of compounds at a seeding density of 50,000 cells/mL. Plates were then placed into 37° C. incubators for 48 hours. After 48 hours incubation, 2 μL of cell medium from each well was transferred into white ProxiPlates™ (PE 6008289). A fresh mix of AlphaLISA Acceptor beads (10 μg/mL) and Biotinylated IL-6 Antibody (1 nM) was made in AlphaLISA Immunoassay buffer and added to all wells (4 μL). The plates were incubated for 60 minutes at room temperature. Streptavidin donor beads (40 μg/mL) were prepared using the assay buffer and added to all wells (5 The plates were incubated for 30 minutes at room temperature and read using PE EnVision® reader. Results are shown in Table 3.
# CYP 3A4 mRNA = experiment: CYP3A4 Induction Assay (qPCR, human hepatocytes); type: in vitro ADME; conditions: 10 μM compound, relative to rifampicin 10 μM
# Experimental: (§1) CYP induction by compounds of the Examples was evaluated in vitro by determining the expression levels of CYP 3A4 mRNA using the qPCR (quantitative polymerase chain reaction) assay. On day one, cryopreserved human hepatocytes were thawed in prewarmed (37° C.) thawing medium (cryopreserved hepatocyte recovery medium, Gibco™ CM 7000; Thermo Fisher Scientific), centrifuged (1000 g for 10 minutes) and resuspended in plating medium (Gibco™ CM3000—Williams Medium E supplemented with hepatocytes plating supplement pak-serum containing; Thermo Fisher Scientific). Cells were counted by trypan blue exclusion using a hemocytometer and adjusted to a cell density of […]. Thereafter, […] of cell suspension was aliquoted per well in a 96-well plate, resulting in 60,000 cells/well. Plates were shaken in the north-south and east-west direction during plating. Plated cells were incubated at 37° C/5% CO2 in a humidified cell culture incubator for 4-6 hours. During this time, incubation medium (Gibco™ CM4000, cell maintenance supplement pack; Thermo Fisher Scientific) was mixed with Gibco™ Geltrex™ (Thermo Fischer Scientific) at the appropriate GeltrexTM protein concentration. Following recovery, medium was removed from cells and replaced with freshly prepared incubation medium. Cells were incubated overnight in a cell culture incubator (37° C./5% CO2).
# (§2) The next day the incubation medium was prepared by combining the hepatocyte maintenance supplement pack with Williams Medium E. The medium was warmed to 37° C. 1000× dimethyl sulfoxide compound stocks of the compounds of the Examples were prepared to the desired concentrations. 10 mM compound stocks in dimethyl sulfoxide were diluted (1 μL to 1 mL CM4000; final concentration=10 μM). Overlay medium was aspirated and […] dose solution added to the desired labeled 96 well plate. Cells were then dosed with compound (10 μM) and prototypical induces at the targeted concentrations either 50 i.tM for omeprazole (Sigma 0104/lotBCBF-2161V) or 10 i.tM for rifampicin (Sigma R3501/lot 011M1159V). A negative control, probenecid, was dosed at 10 i.tM (Sigma P8761/lot 013K0148).
# (§3) On day 3, RNA isolation was performed. All surfaces were cleaned using RNase RNAy. Total RNA was isolated using MagMAX Express 96 RNA Isolation System (Life Technologies, AM1830). Briefly, hepatocytes were washed once with 1X PBS (phosphate buffered saline). 145 μL of RNA Lysis Buffer was added to each well and each well was mixed by pipetting several times. Lysate was then transferred to a well of a 96 well Binding Plate. Samples were then mixed with 20 μL magnetic beads coming from the kit. RNA bound to beads was then captured by the magnetic tip manifold and beads were washed with the wash solution. Samples were treated with TURBOTmDNase. After TURBOTmDNase treatment, RNA was rebound to beads and washed with the provided wash buffer an additional two times. Beads are then dried, and RNA was eluted with 50 μL elution buffer. The eluted mRNA was transferred from the wells to RNase-free sealable microtiter plates and stored at -80° C. until use.
# (§4) Following mRNA isolation, reverse transcription (RT) reactions were performed using TaqmanTm Reverse Transcription Reagents (ThermoFisher Scientific). RT master mix was prepared by mixing 2.5 μL 10× RT buffer, 5.5 μL 25 mM MgCl2, 5μL deoxyNTP mixture, 1.25 50 mM random hexamers, 0.5 μL 2× RNAse inhibitor, 0.625 μL multiscript RTase (50U/μL) and 0.625 μL water. An aliquot of RT mix (16 μL) and an aliquot of mRNA sample (9 μL) was added to each well of a 96-well plate. The SimpliAmpTM Thermal cycler PCR System VIIA7 from Applied Biosystems was used for reverse transcription under the following conditions: segment 1: 25° C. for 10 minutes; segment 2: 45° C. for 45 minutes; segment 3: 95° C. for 5 minutes; and segment 4: 4° C. hold; with 1 cycle for each segment. […]
# CYP3A4 mRNA = experiment: CYP3A4 Induction Assay (qPCR, human hepatocytes); type: in vitro ADME; conditions: cryopreserved human hepatocytes (plated), 10 μM compound, mRNA fold over vehicle (0.1% DMSO)
# Experimental: as §1, §2, §3, §4
# human MALT-1 protein, sequence (Q9UDY8 whole entry): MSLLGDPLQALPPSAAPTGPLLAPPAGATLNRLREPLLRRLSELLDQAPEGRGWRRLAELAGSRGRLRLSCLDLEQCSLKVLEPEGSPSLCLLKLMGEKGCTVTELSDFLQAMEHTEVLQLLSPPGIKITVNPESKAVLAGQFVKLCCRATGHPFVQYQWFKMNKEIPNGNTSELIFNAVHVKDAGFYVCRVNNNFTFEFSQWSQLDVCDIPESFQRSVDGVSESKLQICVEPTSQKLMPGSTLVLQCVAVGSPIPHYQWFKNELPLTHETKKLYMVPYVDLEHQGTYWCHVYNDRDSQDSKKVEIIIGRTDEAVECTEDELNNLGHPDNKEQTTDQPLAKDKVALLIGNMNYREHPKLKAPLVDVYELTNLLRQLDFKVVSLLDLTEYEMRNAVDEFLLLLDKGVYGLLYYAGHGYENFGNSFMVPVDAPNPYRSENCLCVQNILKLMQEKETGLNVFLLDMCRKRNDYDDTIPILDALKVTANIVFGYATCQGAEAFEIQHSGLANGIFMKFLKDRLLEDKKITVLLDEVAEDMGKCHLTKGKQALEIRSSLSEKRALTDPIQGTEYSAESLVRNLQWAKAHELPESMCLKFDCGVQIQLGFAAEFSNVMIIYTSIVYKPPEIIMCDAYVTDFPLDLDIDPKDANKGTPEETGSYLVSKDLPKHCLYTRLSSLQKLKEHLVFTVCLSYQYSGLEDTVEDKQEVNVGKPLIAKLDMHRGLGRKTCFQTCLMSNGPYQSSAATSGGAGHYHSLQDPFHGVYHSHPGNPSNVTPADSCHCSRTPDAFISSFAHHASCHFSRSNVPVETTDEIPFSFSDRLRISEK
SMILES,EC50 (human MALT-1 protein) [nM],EC50 (OCI-LY3 IL6) [nM],CYP3A4 % of positive control (%) (CYP 3A4 mRNA),"fold induction at 1 day, 10 µM (CYP3A4 mRNA)"
"CO[C@H](C)c1c(Nc2ccc([C@H](N(C)C(=O)C3CCS(=O)(=O)CC3)C(F)(F)F)cc2)cnc2sc(C)nc12 [Example 8, N-methyl-1,1-dioxo-N-{(1S)-2,2,2-trifluoro-1-[4-({7-[(1R)-1-methoxyethyl]-2-methyl[1,3]thiazolo [5,4-b]pyridin-6-yl}amino)phenyl]ethyl}-1λ^6-thiane-4-carboxamide]",99,70,(9.23) %,1.53
"CO[C@@H](C)c1c(Nc2c(F)cc([C@H](N(C)C(=O)C3CCS(=O)(=O)CC3)C(F)(F)F)cc2F)cnc2sc(C)nc12 [Example 9, N-{(1S)-1-[3,5-difluoro-4-({7-[(1S)-1-methoxyethyl]-2-methyl[1,3]thiazolo[5,4-b]pyridin-6-yl}amino)phenyl]-2,2,2-trifluoroethyl}-N-methyl-1,1-dioxo-1λ^6-thiane-4-carboxamide]",102,140,(−5.95) %,0.548
"CO[C@@H](c1c(Nc2ccc([C@H](N(C)C(=O)C3CCS(=O)(=O)CC3)C(F)(F)F)cc2)cnc2sc(C)nc12)C(F)(F)F [Example 11, N-methyl-1,1-dioxo-N-{(1S)-2,2,2-trifluoro-1-[4-({2-methyl-7-[(1S)-2,2,2-trifluoro-1-methoxyethyl][1,3]thiazolo[5,4-b]pyridin-6-yl}amino)phenyl]ethyl}-1λ^6-thiane-4-carboxamide]",155,390,(20) %,2.59
"CO[C@@H](c1c(Nc2ccc([C@@H](C(F)F)N(C)C(=O)C3CCS(=O)(=O)CC3)cc2)cnc2sc(C)nc12)C(F)F [Example 13, N-{(1S)-1-[4-({7-[(1S)-2,2-difluoro-1-methoxyethyl]-2-methyl[1,3]thiazolo[5,4-b]pyridin-6-yl}amino)phenyl]-2,2-difluoroethyl}-N-methyl-1,1-dioxo-1λ^6-thiane-4-carboxamide]",193,420,(34.8) %,3.19
"CO[C@H](c1c(Nc2ccc([C@@H](C(F)F)N(C)C(=O)C3CCS(=O)(=O)CC3)cc2)cnc2sc(C)nc12)C(F)(F)F [Example 14, N-{(1S)-2,2-difluoro-1-[4-({2-methyl-7-[(1R)-2,2,2-trifluoro-1-methoxyethyl][1,3]thiazolo[5,4-b]pyridin-6-yl}amino)phenyl]ethyl}-N-methyl-1,1-dioxo-1λ^6-thiane-4-carboxamide]",97,200,(27.3) %,2.71
"CO[C@H](c1c(Nc2ccc([C@H](N(C)C(=O)C3CCN(C(C)=O)CC3)C(F)(F)F)cc2)cnc2sc(C)nc12)C(F)F [Example 18, 1-acetyl-N-{(1,5)-1-[4({7-[(1R)-2,2-difluoro-1-methoxyethyl]-2-methyl[1,3]thiazolo [5,4-b]pyridin-6-yl}amino)phenyl]-2,2,2-trifluoroethyl}-N-methylpiperidine-4-carboxamide]",284,1150,(16.5) %,2.8
"CO[C@@H](C)c1c(Nc2ccc([C@H](N(C)C(=O)C3CCN(C(=O)CO)CC3)C(F)(F)F)cc2)cnc2sc(C)nc12 [Example 20, 1-(hydroxyacetyl)-N-methyl-N-{(1S)-2,2,2-trifluoro-1-[4-({7-[(1S)-1-methoxyethyl]-2-methyl[1,3]thiazolo [5,4-b]pyridin-6-yl}amino)phenyl]ethyl}piperidine-4-carboxamide]",120,180,(4.08) %,1.38

# Second part, the compound after the results:
EC50 (human MALT-1 protein) [nM],EC50 (OCI-LY3 IL6) [nM],CYP3A4 % of positive control (%) (CYP 3A4 mRNA),"fold induction at 1 day, 10 µM (CYP3A4 mRNA)",SMILES
135,140,(12.7) %,1.93,"CCN(C(=O)C1CCS(=O)(=O)CC1)[C@@H](c1ccc(Nc2cnc3sc(C)nc3c2[C@H](C)OC)cc1)C(F)(F)F [Example 7, N-ethyl-1,1-dioxo-N-{(1S)-2,2,2-trifluoro-1-[4-({7-[(1S)-1-methoxyethyl]-2-methyl[1,3]thiazolo [5,4-b]pyridin-6-yl}amino)phenyl]ethyl}-1λ^6-thiane-4-carboxamide]"
61,200,(31) %,3.65,"CO[C@H](C)c1c(Nc2ccc([C@@H](C(F)F)N(C)C(=O)C3CCS(=O)(=O)CC3)cc2)cnc2sc(C)nc12 [Example 12, N-{(1S)-2,2-difluoro-1-[4-({7-[(1R)-1-methoxyethyl]-2-methyl[1,3]thiazolo[5,4-b]pyridin-6-yl}amino)phenyl]ethyl}-N-methyl-1,1-dioxo-1λ^6-thiane-4-carboxamide]"
103,300,(−4.74) %,0.413,"CO[C@@H](C)c1c(Nc2ccc([C@H](N(C)C(=O)C3CCS(=O)(=O)CC3)C(F)(F)F)cc2)cnc2sc(C(F)F)nc12 [Example 15, N-{(1 5)-1-[4-({2-(difluoromethyl)-7-[(1S)-1-methoxyethyl][1,3]thiazolo[5,4-b]pyridin-6-yl}amino)phenyl]-2,2,2-trifluoroethyl}-N-methyl-1,1-dioxo-1λ^6-thiane-4-carboxamide]"
